The nature of data set [1]: Vesicle size distribution of hairpin TFD complexes (Malvern Nanosizer). It counts as physicochemical. The conditions noted are these: TFD complexes containing hairpin TFD SA SIG and the delivery compound. The procedure: To prepare delivery complexes, 10 mg of compound was suspend in 12.5 ml of 5 mM Hepes pH7.5 (final concentration 0.8 mg/ml) and dissolved by sonication (30×30 s on, 30 s off, on ice at 10μ). Absorbance of the resulting solution was measured at 327 nm to establish an accurate concentration. 12.5 μl delivery compound was mixed with 40 μl 10 μM TFD and 447.5 μl 5 mM Hepes (pH7.5) and sonicated in an ice bath using an MSE 150 Soniprep attached with a microprobe. Thirty cycles of sonication were performed with 30 s on (with 50% power, approximately 10μ) and 30 s off.
The size distributions of the formed vesicles were measured using a Malvern Nanosizer using standard methodology and are set out in Table 3 below: […]

Data set [2] deals with MRSA strain, EMRSA-15. The experiment in a line: Fluorescence microscopy of uptake of labelled oligonucleotide. It counts as cell-based, S. aureus. The conditions noted are these: delivered in Buforin II-derivatised complexes formed with Compound 7; overnight growth. On the procedure:
Derivatised TFD complexes were formed as described, with the exception that the TFD was substituted with a fluorescently labelled oligonucleotide, Tef, that contained a fluorescein dye at the 5′ end. The sequence of the oligonucleotide was:
The derivatised complexes are added to 200 μl of LB broth inoculated with the MRSA strain, EMRSA-15, and grown overnight with shaking at 37° C. The following morning, cells were harvested by centrifugation and washed four times in an equal volume of PBS. A drop of the bacterial suspension was placed on a microscope slide and air dried. Cells were then heat-fixed by passing the slide through a Bunsen flame. The slide was then flooded with a solution of Loeffler's methylene blue (5 mg/ml methylene blue in 69:30:1 (v/v) solution of water:methanol: 1% (w/v) KOH) and allowed to stand for 1 min, after which the excess solution was washed off with water and the cells visualised using a Cairn CCD Fluorescence Microscope.

Data set [3] concerns TFD. Nature of the data set: SYBR Green-DNA binding assay: binding of bolasomes to TFDs. The conditions noted are these: at the concentrations used for sC7 bolasomes; 2 μg TFD/ml. The procedure:
To determine the proportion of TFDs being bound by the vesicles, a SYBR-green binding assay was used. TFD complexes were formed as described above in Hepes buffer with the adaptation that the buffer contained 5 μl of a 1 in 10 dilution of SYBR Green I dye (Invitrogen, 10,000× stock prepared in DMSO). Fluorescence was measured (λEX 497 nm, λEM 520 nm) to determine how much bolasome needed to be added to quench the binding of SYBR Green to the TFDs.
SYBR-Green I dye binds specifically to double-stranded DNA and, as it does, gives a strong fluorescent signal. By measuring the change in signal in the presence of different concentrations and types of bolasome, it was possible to calculate the minimum amount of bolasome needed to quench the SYBR-Green binding, due to the dye being excluded by the bolasomes. This was achieved by extrapolation from the linear portion of a titration curve that plotted amount of bolasome added to fluorescent signal. […] At these concentrations no quenching was seen by the monomeric C7.

The conditions of data set [4]: Weissig et al. (2006) J. Liposome Res. 16: 249-264, cited from earlier work.
The conditions of data set [5]: Weissig et al. 2001 S. T. P. Pharma Sci. 11: 91-96, Table I; cited from earlier work.
The test system of data set [6] is EMRSA-15. The experiment in a line: Growth assay, TFDs delivered by antibacterial peptides. It counts as cell-based, S. aureus. The conditions noted are these: for bacterial growth of EMRSA-15, agent alone: TFD alone or Gramicidin alone; for bacterial growth of EMRSA-15, agent alone / bacterial growth of EMRSA-15, TFD with Gramicidin: LB media; for bacterial growth of EMRSA-15, TFD with Gramicidin: 1 μg DB-TFD with 150 ng/ul of Gramicidin; for growth of EMRSA-15, TFD mixed with Buforin II: 96 well plate in vitro assay. The procedure:
The following antibacterial peptides were assayed for their ability to deliver TFDs to bacterial cells: Gramicidin, Polymyxin nonapeptide (both purchased from Sigma Aldrich) and Buforin II (Park et al. (2000) Proc. Natl. Acad. Sci. USA 97: 8245-8250). Typically 1 μg of the Sig DB-TFDs and SigScr DB-TFD as described in Example 1 were mixed with between 0.2 and 5 μg of Gramicidin in a total volume of 5 μl 50 mM NaCl. Of this, 1 μl was added to 200 μl of LB broth inoculated with a 1/100 dilution of a glycerol stock of EMRSA-15 at an original density of 0.3 OD (Absorbance at 600 nm) and aliquoted into a well of a 96 well plate. Experiments were performed in triplicate. The plates were incubated at 37° C. with shaking and absorbance readings (at […]) were taken using a plate reader.

The test system of data set [7] is Staphylococcus aureus EMRSA 16. Nature of the data set: Tissue burden study, mouse sepsis model. The conditions noted are these: Dwass-Steel-Chritchlow-Fligner, all pairwise comparisons. It counts as in vivo. The procedure: Animals were treated in groups of since mice per treatment group, therefore forty eight animals were used in total for the study. Two 10 ml cultures of Staphylococcus aureus EMRSA 16 were prepared and placed on orbital shaker (220 rpm) overnight at 37° C. The following day, the Staphylococcus aureus EMRSA 16 cultures were removed from shaker, pelleted and washed twice before being resuspended in saline to an OD of 0.132 (1.5×10^8 cfu/ml). This stock solution of Staphylococcus aureus EMRSA 16 was then further diluted 1:1.5 in saline (1×10^8 cfu/ml) i.e. 2.0×10^7 bacteria per mouse.
All forty eight mice were then infected with 0.2 ml of the 1.0×10^8/ml suspension by intravenous injection into mouse tail vein. The number of Staphylococcus aureus EMRSA 16 bacteria per ml in the remainder of the suspensions after inoculation was also counted to confirm infection load.
Mice were treated 1, 9 and 17 hours post infection with either compound or vehicle, though vancomycin was only administered after 1 h.
After 25 hours post infection, all animals were weighed and then euthanised. […] Organ homogenates were quantitatively cultured onto CLED agar and incubated at 37° C. for up to 3 days and colonies counted. The data from the culture burdens was analysed by the Kruskal-Wallis test using Stats Direct. […]

Where two headings read alike, the source gives them in different places. {Fluorescein} = fluorescein label

Here are results for 8 molecules from patent US9024005B2, “Nucleic acid complexes” (priority 2010, dated 2015).

Turning to `Cc1cc(N)c2ccccc2[n+]1CCCCCCCCCC[n+]1c(C)cc(N)c2ccccc21` [Dequalinium, reference compound], the “Vesicle size distribution (nm)” value in data set [1] is given as 75-820 nm.
Turning to `Nc1c2c([n+](CCCCCCCCCCCC[n+]3c4c(c(N)c5ccccc53)CCCC4)c3ccccc13)CCCC2.[Cl-].[Cl-]` [Compound 7_12, 10,10′-(dodecane-1,12-diyl)bis(9-amino-1,2,3,4-tetrahydroacridinium)dichloride], in data set [1], the “Vesicle size distribution (nm)” value is reported as 117 +/− 32 nm.
Consider “Tef: fluorescein 5′-labelled oligonucleotide, SEQ ID NO: 52, substitute for the TFD (AGGCGGCCGCGAATTCACTAGTGA; DNA, 5' {Fluorescein}, backbone not given here; listed as Staphylococcus aureus)”, for which the “uptake of labelled oligonucleotide into bacteria (fluorescence view)” value in data set [2] was “had been internalised”.
For the molecule `Nc1c2c([n+](CCCCCCCCCC[n+]3c4c(c(N)c5ccccc53)CCCC4)c3ccccc13)CCCC2.[Cl-].[Cl-]` [Compound 7, 10,10′-(decane-1,10-diyl)bis(9-amino-1,2,3,4-tetrahydroacridinium)dichloride], the “Vesicle size distribution (nm)” value in data set [1] was 139 +/− 35 nm. The “quenching of SYBR-Green binding” value in data set [3] is on record as “no quenching”. The results for the “in vitro toxicity compared to dequalinium” value in data set [4] and in data set [4] (listed as Compound 7 analogue) were “less in vitro toxicity than dequalinium” and “lower toxicity in vitro compared to dequalinium”, respectively. In addition, the “published size distribution of the vesicles” value in data set [5] was 169 nm.
Regarding Gramicidin [reference compound], the “bacterial growth of EMRSA-15, agent alone” value in data set [6] is “grew as well as the untreated control”.
On to “Sig TFD: transcription factor decoy with S. aureus Sig binding site (SEQ ID NO:9), given alone at 1 nM (TTATTATATACCCATCGAAATAATTTCTAATCTTC; DNA, backbone not given here; further chemistry not fully specified; listed as Staphylococcus aureus)”, for which, in data set [7], the “Kruskal-Wallis pairwise comparison of kidney burden vs Vancomycin” value is less than 0.0001 and the “Kruskal-Wallis pairwise comparison of kidney burden vs Vehicle” value was determined as 0.9203.

B1: scrambled version of the DB-TFD: dumbbell TFD with scrambled Sig binding site, SEQ ID NO: 43 and 44 (nucleic acid)
chain 1: CTTGGTTTTTCCAAGTAGAAAGAAGATTTAGGGCGATTTTATAATATAT
chain 2: CCGTCTTTTTGACGGATATATTATAAAATCGCCCTAAATCTTCTTTCTA
modifications: DNA, backbone not given here; dumbbell decoy with hairpin loops
For the molecule B1, in data set [6], the “bacterial growth of EMRSA-15, TFD with Gramicidin” value is on record as “grew as well as the untreated control” and the “growth of EMRSA-15, TFD mixed with Buforin II” value is “no discernable effect on growth”.

B2: Sig DB-TFD: dumbbell TFD with recognition site for S. aureus alternative sigma protein, SEQ ID NO: 30 and 31 (nucleic acid)
chain 1: CTTGGTTTTTCCAAGGAAGATTAGAAATTATTTCGATGGGTATATAATA
chain 2: CCGTCTTTTTGACGGTATTATATACCCATCGAAATAATTTCTAATCTTC
modifications: DNA, backbone not given here; phosphorylated oligos forming dumbbell with hairpin loops, further chemistry not fully specified
B2: in data set [6], the “bacterial growth of EMRSA-15, TFD with Gramicidin” value was “no bacterial growth”; the “growth of EMRSA-15, TFD mixed with Buforin II” value is reported as “prevented growth”; the “bacterial growth of EMRSA-15, agent alone” value is recorded as “grew as well as the untreated control”.
